The results in this text go back to patent US11840521B2, “Modulators of Mas-related G-protein receptor X4 and related products and methods” (Escient Pharmaceuticals, Inc., priority 2019, dated 2023).

Chain of MRGPRX4 (Q96LA9 whole entry): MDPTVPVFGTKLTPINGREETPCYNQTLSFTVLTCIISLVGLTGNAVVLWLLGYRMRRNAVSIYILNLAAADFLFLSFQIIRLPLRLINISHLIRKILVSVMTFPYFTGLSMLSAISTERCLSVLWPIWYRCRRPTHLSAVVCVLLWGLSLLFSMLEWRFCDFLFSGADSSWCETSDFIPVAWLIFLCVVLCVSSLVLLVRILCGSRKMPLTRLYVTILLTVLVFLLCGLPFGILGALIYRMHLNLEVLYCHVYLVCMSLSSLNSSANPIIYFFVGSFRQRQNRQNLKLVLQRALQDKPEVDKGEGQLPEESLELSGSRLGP

One experiment has as its target MRGPRX4 (Homo sapiens, UniProt Q96LA9). In words: MRGPR X4 antagonist activity, IP-One Gq HTRF assay in stably transfected HEK cells (versus agonist bilirubin, deoxycholic acid, conjugated bilirubin, urobilin, obeticholic acid or BAR502). The format is cell-based. Set-up: expressed in transfected cells; host or cells: HEK cells, stably transfected. As to conditions: versus 10 μM Bilirubin agonist; HEK cells expressing human MRGPR X4; read-out: MRGPR4 Antagonist Activity. How it is done:
HEK cells stably transfected to express human MRGPR X4 were maintained in an incubator at 37° C. with 5% CO2 and grown in DMEM media with 10% fetal bovine serum (FBS) and 1% each of sodium pyruvate, Glutamax, penicillin/streptomycin, and Geneticin. HEK cells stably transfected to express mouse MRGPR A1 were maintained in the same incubator and grown in DMEM media with 10% FBS, 1% each of sodium pyruvate, Glutamax, penicillin/streptomycin, Geneticin, and 2.2 mg/mL Hygromycin.
Cells were plated in a 384-well assay plate at 20,000 cells per well in 12 μL of Opti-MEM and kept in an incubator overnight. On the day of the assay, compounds solubilized at 10 mM in DMSO were added as a 10-point curve (10 uM final top concentration with 1:3 serial dilutions) using a Tecan D300E digital dispenser. […] Final concentrations of DMSO were kept consistent across the plate. Plates were incubated in the dark for 1 h at 37° C. and then for 30 minutes at room temperature. IP-1 standards and HTRF detection reagents were added according to the IP-One—Gq Kit purchased from Cisbio (part number 62IPAPEJ) and incubated in the dark for 1 h at room temperature. The plate was read on a Molecular Devices SpectraMax iD5 plate reader. The HTRF ratio was calculated from the raw data and graphed using GraphPad Prism to calculate an IC50 value for each compound.
For the compound `O=C(O)c1cccc(COc2ccc(C(F)F)cc2Cl)c1` [Compound 33-3], the IC50 was below 100 nM.

For `N#Cc1ccc(OCc2cccc(C(=O)O)c2)c(C(F)(F)F)c1` [Compound 1-68], the IC50 is 100 to 500 nM.

As to `O=C(O)c1cccc(COc2ccc(Cl)cc2C(F)(F)F)c1F` [Compound 1-62], the IC50 is below 100 nM.

For `Cc1cc(-c2ccccc2)ccc1OCc1cccc(C(=O)O)c1` [Compound 1-51], the IC50 fell in the range of 1000 to 2500 nM.

Regarding `CNC(=O)CNC(=O)c1cccc(COc2ccc(C(F)(F)F)cc2Cl)c1` [Compound 52-27], the IC50 is 500 to 1000 nM.

As for `Clc1ccc(OCc2cccc(-c3nnn[nH]3)c2)c(Cl)c1Cl` [Compound 17-4], the IC50 was below 100 nM.

With `FC(F)(F)c1ccc(OCc2cccc(-c3ncc[nH]3)c2)c(Cl)c1` [Compound 46-1, 2-(3-((2-chloro-4-(trifluoromethyl)phenoxy)methyl)phenyl)-1H-imidazole], the IC50 was in the range of 100 to 500 nM.

`COCCNC(=O)c1cccc(COc2ccc(C(F)(F)F)cc2Cl)c1` [Compound 52-9]: the IC50 is 500 to 1000 nM.

Turning to `Cc1cc(C(C)(C)C)ccc1OCc1cccc(C(=O)O)c1` [Compound 1-108], the IC50 lay in the range of 1000 to 2500 nM.

`O=C(O)c1cccc(COc2ccc(C(F)(F)F)c(F)c2)c1` [Compound 1-112]: the IC50 is below 100 nM.

Regarding `O=C(O)c1cc(COc2ccc(C(F)(F)F)cc2Cl)ccc1Cl` [Compound 1-83], the IC50 was in the range of 100 to 500 nM.

For the compound `Cc1cc(COc2ccc(Cl)cc2Cl)cc(C(=O)O)c1` [Compound 4-7], the IC50 was below 100 nM.

For the compound `O=C(O)c1cccc(COc2cccc(Br)c2Cl)c1` [Compound 1-142], the IC50 lay in the range of 100 to 500 nM.

On to `N#Cc1cc(C#Cc2ccc(C(F)(F)F)cc2Cl)cc(C(=O)O)c1` [Compound 60-1, 3-((2-chloro-4-(trifluoromethyl)phenyl)ethynyl)-5-cyanobenzoic acid], for which the IC50 lay in the range of 100 to 500 nM.

Turning to `CC(=O)c1ccc(OCc2cccc(C(=O)O)c2)c(Cl)c1` [Compound 1-126], the IC50 fell in the range of 1000 to 2500 nM.

As for `O=C(NCCCO)c1cccc(COc2ccc(C(F)(F)F)cc2Cl)c1` [Compound 52-12], the IC50 was 100 to 500 nM.

As for `Cc1cc(N2CCCC2)ccc1OCc1cccc(C(=O)O)c1F` [Compound 4-23], the IC50 lay within 500 to 1000 nM.

Regarding `O=C(O)c1cccc(COc2ccc3ccncc3c2)c1` [Compound 1-98], the IC50 lay within 500 to 1000 nM.

For the compound `Cc1cc(C#N)ccc1OCc1cccc(C(=O)O)c1` [Compound 1-99], the IC50 lay in the range of 100 to 500 nM.

Turning to `O=C(O)c1cccc(COc2cc3ccccc3cc2Cl)c1` [Compound 1-130], the IC50 lay in the range of 100 to 500 nM.

Turning to `O=C(O)c1cccc(COc2cccc(C(F)F)c2)c1` [Compound 1-100], the IC50 was above 2500 nM.

Take `COC(=O)c1cccc(COc2ccc3ccccc3c2)n1` [Compound 1-12]: the IC50 is below 100 nM.

On to `CC(=O)c1ccc(OCc2cccc(C(=O)O)c2)cc1` [Compound 1-54], for which the IC50 is above 2500 nM.

For the compound `COC(=O)c1cccc(COc2ccc(C(F)(F)F)cc2Cl)c1` [Compound 1-2], the IC50 was 100 to 500 nM.

For `Cc1cc(Cl)ccc1OCc1cccc(-c2nnn[nH]2)c1` [Compound 17-13], the IC50 is below 100 nM.

On to `O=C(N[C@H]1CC[C@H](O)CC1)c1cccc(COc2ccc(C(F)(F)F)cc2Cl)c1` [Compound 52-15], for which the IC50 was 500 to 1000 nM.

Take `O=C(O)c1cccc(COc2ccc(C(F)(F)F)cc2F)c1` [Compound 1-64]: the IC50 was below 100 nM.

Regarding `O=S(=O)(O)c1cccc(COc2ccc(C(F)(F)F)cc2Cl)c1` [Compound 40-1, 3-((2-chloro-4-(trifluoromethyl)phenoxy)methyl)benzenesulfonic acid], the IC50 is 500 to 1000 nM.

Turning to `O=C(O)c1cc(F)cc(COc2ccc(Cl)cc2Cl)c1` [Compound 4-4], the IC50 was below 100 nM.

As for `O=C(O)c1cccc(COc2ccc(OC(F)(F)F)cc2Cl)n1` [Compound 1-125], the IC50 is below 100 nM.

As to `Cc1cc(COc2ccc(C(F)(F)F)c(Cl)c2)cc(C(=O)O)c1` [Compound 4-17], the IC50 was below 100 nM.

In the case of `O=C(NC1CCCC1)c1cccc(COc2ccc(C(F)(F)F)cc2Cl)c1` [Compound 52-23], the IC50 is 100 to 500 nM.

On to `COC(=O)c1cccc(COc2cccc(F)c2)c1` [Compound 1-5], for which the IC50 lay in the range of 100 to 500 nM.

As to `N#CCNC(=O)c1ccc(COc2ccc(C(F)(F)F)cc2Cl)cc1` [Compound 52-6], the IC50 is 100 to 500 nM.

For `Cc1cc(CNc2ccc(C(F)(F)F)cc2Cl)nc(C(=O)O)c1` [Compound 57-1, 6-(((2-chloro-4-(trifluoromethyl)phenyl)amino)methyl)-4-methylpicolinic acid], the IC50 was below 100 nM.

For the compound `Cc1cc(COc2ccc3ccccc3c2)nc(C(=O)O)c1` [Compound 41-1, 4-methyl-6-((naphthalen-2-yloxy)methyl)picolinic acid], the IC50 was below 100 nM.

Turning to `CNC(=O)c1cccc(COc2ccc(C(F)(F)F)cc2Cl)c1` [Compound 52-26], the IC50 is 100 to 500 nM.

Regarding `O=C(O)c1cccc(COc2ccc(C(F)(F)F)c(Cl)c2)c1F` [Compound 4-15], the IC50 was below 100 nM.

For `N#Cc1cc(OCc2cccc(C(=O)O)c2)ccc1Cl` [Compound 1-70], the IC50 lay within 1000 to 2500 nM.

As to `O=C(O)c1cccc(COc2ccc3c(c2)C(=O)CCC3)c1` [Compound 1-151], the IC50 was above 2500 nM.

On to `O=C(O)c1ccc(NC(=O)c2cccc(COc3ccc(C(F)(F)F)cc3Cl)c2)cc1` [Compound 54-10], for which the IC50 lay in the range of 500 to 1000 nM.

Take `C#Cc1cc(C(F)(F)F)ccc1OCc1cccc(C(=O)O)c1F` [Compound 36-1, 3-((2-ethynyl-4-(trifluoromethyl)phenoxy)methyl)-2-fluorobenzoic acid]: the IC50 was 500 to 1000 nM.

Turning to `O=C(Nc1ccccc1)c1cccc(COc2ccc(C(F)(F)F)cc2Cl)c1` [Compound 52-11], the IC50 lay within 100 to 500 nM.

Turning to `COC(=O)c1cccc(COc2ccc3scnc3c2)c1` [Compound 1-8], the IC50 was above 2500 nM.

Take `O=C(O)c1cccc(COc2cccc3c2CCC3)c1` [Compound 1-33]: the IC50 was 1000 to 2500 nM.

As to `O=C(N[C@@H](Cc1c[nH]c2ccccc12)C(=O)O)c1cccc(COc2ccc(C(F)(F)F)cc2Cl)c1` [Compound 54-5], the IC50 lay in the range of 100 to 500 nM.

As for `O=C(O)c1cncc(COc2ccc(Cl)cc2Cl)n1` [Compound 1-116], the IC50 is 500 to 1000 nM.

Consider `CCOc1ccc(OCc2cccc(C(=O)O)c2)cc1` [Compound 1-45], for which the IC50 is 1000 to 2500 nM.

`O=C(O)c1cc(F)cc(COc2ccc(Cl)c(Cl)c2Cl)c1` [Compound 1-123]: the IC50 was below 100 nM.

For the compound `O=C(NCc1ccccc1)c1cccc(COc2ccc(C(F)(F)F)cc2Cl)c1` [Compound 52-1, N-benzyl-3-((2-chloro-4-(trifluoromethyl)phenoxy)methyl)benzamide], the IC50 lay within 100 to 500 nM.

Consider `O=C(O)c1cccc(COc2ccc(C(F)F)cc2)c1` [Compound 33-2], for which the IC50 lay in the range of 100 to 500 nM.

Take `CNCc1cccc(COc2ccc(C(F)(F)F)cc2Cl)c1` [Compound 63-1, 1-(3-((2-chloro-4-(trifluoromethyl)phenoxy)methyl)phenyl)-N-methylmethanamine]: the IC50 lay in the range of 100 to 500 nM.

The experiment is the same for the next values; noted with them: versus 10 μM Bilirubin agonist; read-out: IC50 (Bilirubin agonist).
Consider `Clc1ccc(OCc2cccc(-c3nnn[nH]3)c2)c(Cl)c1Cl` [Compound 17-4], for which the IC50 worked out at 5 nM.

The same experiment, now with this note: versus 20 μM deoxycholic acid; read-out: IC50 (Deoxycholic Acid agonist).
`Clc1ccc(OCc2cccc(-c3nnn[nH]3)c2)c(Cl)c1Cl` [Compound 17-4]: the IC50 was 6 nM.

The experiment is the same for the next values; noted with them: versus 20 μM obeticholic acid; read-out: IC50 (Obeticholic Acid Agonist).
With `Clc1ccc(OCc2cccc(-c3nnn[nH]3)c2)c(Cl)c1Cl` [Compound 17-4], the IC50 was found to be 8 nM.

The same experiment, now with this note: versus 50 μM urobilin; read-out: IC50 (Urobilin Agonist).
As to `Clc1ccc(OCc2cccc(-c3nnn[nH]3)c2)c(Cl)c1Cl` [Compound 17-4], the IC50 was 6 nM.

Staying with this experiment, now noted: versus 100 μM conjugated bilirubin; read-out: IC50 (Conjugated Bilirubin Agonist).
As to `Clc1ccc(OCc2cccc(-c3nnn[nH]3)c2)c(Cl)c1Cl` [Compound 17-4], the IC50 turned out to be 7 nM.
